# Counter-ions that a name gives are not always drawn.
# Target: Platelet-activating factor receptor (Oryctolagus cuniculus)
# Experiment: Antagonist activity against platelet activating factor (PAF) receptor in rabbit platelet membranes using [3H]C18-PAF as radioligand
row,Compound,Ki
1,CCN(CC)C(=O)n1cc(C(=O)[C@@H]2CSC(c3cccnc3)N2)c2ccccc21 (stereo partly drawn) [3-((R)-2-Pyridin-3-yl-thiazolidine-4-carbonyl)-indole-1-carboxylic acid diethylamide],1.4 nM
2,"COc1cc2[nH]cc(C(=O)[C@@H]3CSC(c4cccnc4)N3)c2cc1OC (stereo partly drawn) [(5,6-Dimethoxy-1H-indol-3-yl)-((R)-2-pyridin-3-yl-thiazolidin-4-yl)-methanone]",87 nM
3,O=C(c1cn(C(=O)OCc2ccccc2)c2ccccc12)[C@@H]1CSC(c2cccnc2)N1 (stereo partly drawn) [3-((R)-2-Pyridin-3-yl-thiazolidine-4-carbonyl)-indole-1-carboxylic acid benzyl ester; compound with oxalic acid],3 nM
4,CN(C)C(=O)n1cc(C(=O)[C@@H]2CSC(c3cccnc3)N2)c2ccc(-c3ccc(F)cc3)cc21 (stereo partly drawn) [6-(4-Fluoro-phenyl)-3-((R)-2-pyridin-3-yl-thiazolidine-4-carbonyl)-indole-1-carboxylic acid dimethylamide],9.2 nM
5,Cc1cccc2c(C(=O)[C@@H]3CSC(c4cccnc4)N3)c[nH]c12 (stereo partly drawn) [(7-Methyl-1H-indol-3-yl)-((R)-2-pyridin-3-yl-thiazolidin-4-yl)-methanone],6.5 nM
6,CN(C)C(=O)n1cc(C(=O)[C@@H]2CSC(c3cccnc3)N2)c2ccc(C(=O)c3ccccc3)cc21 (stereo partly drawn) [6-Benzoyl-3-((R)-2-pyridin-3-yl-thiazolidine-4-carbonyl)-indole-1-carboxylic acid dimethylamide],1 nM
7,CC(C)(C)OC(=O)n1cc(C(=O)[C@@H]2CSC(c3cccnc3)N2)c2ccc(OCc3ccccc3)cc21 (stereo partly drawn) [6-Benzyloxy-3-((R)-2-pyridin-3-yl-thiazolidine-4-carbonyl)-indole-1-carboxylic acid tert-butyl ester],1 nM
8,CCn1cc(C(=O)[C@@H]2CSC(c3cccnc3)N2)c2ccccc21 (stereo partly drawn) [(1-Ethyl-1H-indol-3-yl)-((R)-2-pyridin-3-yl-thiazolidin-4-yl)-methanone],5.4 nM
9,CN(C)C(=O)n1cc(C(=O)[C@@H]2CSC(c3cccnc3)N2)c2ccc(Br)cc21 (stereo partly drawn) [6-Bromo-3-((R)-2-pyridin-3-yl-thiazolidine-4-carbonyl)-indole-1-carboxylic acid dimethylamide],0.6 nM
10,"Cc1ccc2c(c1)c(C(=O)[C@@H]1CSC(c3cccnc3)N1)c(C)n2C(=O)N(C)C (some centres not stated) [2,5-Dimethyl-3-(2-pyridin-3-yl-thiazolidine-4-carbonyl)-indole-1-carboxylic acid dimethylamide]",13 nM
11,"COc1cc2c(C(=O)[C@@H]3CSC(c4cccnc4)N3)cn(C(=O)N(C)C)c2cc1OC (stereo partly drawn) [5,6-Dimethoxy-3-((R)-2-pyridin-3-yl-thiazolidine-4-carbonyl)-indole-1-carboxylic acid dimethylamide]",10 nM
12,O=C(c1c[nH]c2cc(F)ccc12)[C@@H]1CSC(c2cccnc2)N1 (stereo partly drawn) [(6-Fluoro-1H-indol-3-yl)-((R)-2-pyridin-3-yl-thiazolidin-4-yl)-methanone],5.6 nM
13,COc1ccc2c(C(=O)[C@@H]3CSC(c4cccnc4)N3)c[nH]c2c1 (stereo partly drawn) [(6-Methoxy-1H-indol-3-yl)-((R)-2-pyridin-3-yl-thiazolidin-4-yl)-methanone],9.5 nM
14,O=C(c1c[nH]c2ccccc12)[C@@H]1CSC(c2cccnc2)N1 (stereo partly drawn) [(1H-Indol-3-yl)-((R)-2-pyridin-3-yl-thiazolidin-4-yl)-methanone; compound with oxalic acid],3.4 nM
15,CN(C)C(=O)n1cc(C(=O)[C@@H]2CSC(c3cccnc3)N2)c2ccc(OCc3ccc(F)cc3)cc21 (stereo partly drawn) [6-(4-Fluoro-benzyloxy)-3-((R)-2-pyridin-3-yl-thiazolidine-4-carbonyl)-indole-1-carboxylic acid dimethylamide],1.8 nM
16,O=C(O)CCn1cc(C(=O)[C@@H]2CSC(c3cccnc3)N2)c2ccccc21 (stereo partly drawn) [3-[3-((R)-2-Pyridin-3-yl-thiazolidine-4-carbonyl)-indol-1-yl]-propionic acid],25 nM
17,"Cc1ccc2[nH]c(C)c(C(=O)[C@@H]3CSC(c4cccnc4)N3)c2c1 (stereo partly drawn) [(2,5-Dimethyl-1H-indol-3-yl)-((R)-2-pyridin-3-yl-thiazolidin-4-yl)-methanone]",33 nM
18,CNC(=O)Cn1cc(C(=O)[C@@H]2CSC(c3cccnc3)N2)c2ccccc21 (stereo partly drawn) [N-Methyl-2-[3-((R)-2-pyridin-3-yl-thiazolidine-4-carbonyl)-indol-1-yl]-acetamide],2.4 nM
19,O=C(c1cn(Cc2ccccc2)c2ccccc12)[C@@H]1CSC(c2cccnc2)N1 (stereo partly drawn) [(1-Benzyl-1H-indol-3-yl)-((R)-2-pyridin-3-yl-thiazolidin-4-yl)-methanone],49 nM
20,CN(C)C(=O)n1cc(C(=O)[C@@H]2CSC(c3cccnc3)N2)c2ccc(Oc3ccc(F)cc3)cc21 (stereo partly drawn) [6-(4-Fluoro-phenoxy)-3-((R)-2-pyridin-3-yl-thiazolidine-4-carbonyl)-indole-1-carboxylic acid dimethylamide],2.2 nM
21,O=C(Nc1cccc(Cl)c1)[C@@H]1CSC(c2cccnc2)N1 (stereo partly drawn) [(R)-2-Pyridin-3-yl-thiazolidine-4-carboxylic acid (3-chloro-phenyl)-amide],208 nM
22,O=C(c1c[nH]c2ccccc12)[C@@H]1CS[C@@H](c2cccnc2)N1C(=O)C(F)(F)F,7100 nM
23,"Cc1nnc2n1-c1sc3c(c1C(c1ccccc1Cl)=NC2)CC(C(=O)N1CCOCC1)C3 (configuration not stated) [6-(2-chlorophenyl)-1-methyl-8,9-dihydro-4H,7H-cyclopenta[4,5]thieno[3,2-f][1,2,4]triazolo[4,3-a][1,4]diazepin-9-yl-1,4-oxazinan-4-ylmethanone (WEB 2170)]",29 nM
24,CCOC(=O)n1cc(C(=O)[C@@H]2CSC(c3cccnc3)N2)c2ccccc21 (stereo partly drawn) [3-((R)-2-Pyridin-3-yl-thiazolidine-4-carbonyl)-indole-1-carboxylic acid ethyl ester],4.4 nM
25,COCCOc1ccc2c(C(=O)[C@@H]3CSC(c4cccnc4)N3)cn(C(=O)N(C)C)c2c1 (stereo partly drawn) [6-(2-Methoxy-ethoxy)-3-((R)-2-pyridin-3-yl-thiazolidine-4-carbonyl)-indole-1-carboxylic acid dimethylamide],3 nM

# Next, values leading:
row,Ki,Compound
1,8.1 nM,CCS(=O)(=O)n1cc(C(=O)[C@@H]2CSC(c3cccnc3)N2)c2ccc(OCc3ccccc3)cc21 (stereo partly drawn) [(6-Benzyloxy-1-ethanesulfonyl-1H-indol-3-yl)-((R)-2-pyridin-3-yl-thiazolidin-4-yl)-methanone]
2,9750 nM,CC(C)(C)OC(=O)N1C(c2cccnc2)SC[C@H]1C(=O)c1c[nH]c2ccccc12 (stereo partly drawn) [(R)-4-(1H-Indole-3-carbonyl)-2-pyridin-3-yl-thiazolidine-3-carboxylic acid tert-butyl ester]
3,18 nM,CCS(=O)(=O)n1cc(C(=O)[C@@H]2CSC(c3cccnc3)N2)c2ccccc21 (stereo partly drawn) [(1-Ethanesulfonyl-1H-indol-3-yl)-((R)-2-pyridin-3-yl-thiazolidin-4-yl)-methanone]
4,385 nM,O=C([C@@H]1CSC(c2cccnc2)N1)n1ccc2cccc(OCc3ccccc3)c21 (stereo partly drawn) [(7-Benzyloxy-indol-1-yl)-((R)-2-pyridin-3-yl-thiazolidin-4-yl)-methanone; compound with oxalic acid]
5,37 nM,O=C(c1c[nH]c2cc(OCc3cccnc3)ccc12)[C@@H]1CSC(c2cccnc2)N1 (stereo partly drawn) [[6-(Pyridin-3-ylmethoxy)-1H-indol-3-yl]-((R)-2-pyridin-3-yl-thiazolidin-4-yl)-methanone]
6,36 nM,"Cc1ccc2c(c1)c(C(=O)[C@@H]1CSC(c3cccnc3)N1)c(C)n2C(=O)N1CCOCC1 (stereo partly drawn) [[2,5-Dimethyl-3-((R)-2-pyridin-3-yl-thiazolidine-4-carbonyl)-indol-1-yl]-morpholin-4-yl-methanone]"
7,1.5 nM,O=C(c1cn(C(=O)N2CCOCC2)c2ccccc12)[C@@H]1CSC(c2cccnc2)N1 (stereo partly drawn) [Morpholin-4-yl-[3-((R)-2-pyridin-3-yl-thiazolidine-4-carbonyl)-indol-1-yl]-methanone]
8,2.6 nM,Cc1ccc2c(C(=O)[C@@H]3CSC(c4cccnc4)N3)cn(C(=O)OC(C)(C)C)c2c1 (stereo partly drawn) [6-Methyl-3-((R)-2-pyridin-3-yl-thiazolidine-4-carbonyl)-indole-1-carboxylic acid tert-butyl ester]
9,7.7 nM,O=C(c1ccccc1)c1cccc(NC(=O)[C@@H]2CSC(c3cccnc3)N2)c1 (stereo partly drawn) [(R)-2-Pyridin-3-yl-thiazolidine-4-carboxylic acid (3-benzoyl-phenyl)-amide]
10,16 nM,Cc1[nH]c2cc(OCc3ccccc3)ccc2c1C(=O)[C@@H]1CSC(c2cccnc2)N1 (stereo partly drawn) [(6-Benzyloxy-2-methyl-1H-indol-3-yl)-((R)-2-pyridin-3-yl-thiazolidin-4-yl)-methanone]
11,8.2 nM,COc1ccc2c(C(=O)[C@@H]3CSC(c4cccnc4)N3)cn(C(=O)OC(C)(C)C)c2c1 (stereo partly drawn) [6-Methoxy-3-((R)-2-pyridin-3-yl-thiazolidine-4-carbonyl)-indole-1-carboxylic acid tert-butyl ester; compound with oxalic acid]
12,15 nM,O=C(C1CSC(c2cccnc2)N1)n1ccc2cc(OCc3ccccc3)ccc21 (configuration not stated) [(5-Benzyloxy-indol-1-yl)-(2-pyridin-3-yl-thiazolidin-4-yl)-methanone]
13,10 nM,O=C(c1cn(C(=O)N2CCOCC2)c2cc(OCc3ccccc3)ccc12)[C@@H]1CSC(c2cccnc2)N1 (stereo partly drawn) [[6-Benzyloxy-3-((R)-2-pyridin-3-yl-thiazolidine-4-carbonyl)-indol-1-yl]-morpholin-4-yl-methanone]
14,1 nM,CN(C)C(=O)n1cc(C(=O)[C@@H]2CSC(c3cccnc3)N2)c2ccc(Cl)cc21 (stereo partly drawn) [6-Chloro-3-((R)-2-pyridin-3-yl-thiazolidine-4-carbonyl)-indole-1-carboxylic acid dimethylamide]
15,13 nM,O=C(c1c[nH]c2cccc(OCc3ccccc3)c12)[C@@H]1CSC(c2cccnc2)N1 (stereo partly drawn) [(4-Benzyloxy-1H-indol-3-yl)-((R)-2-pyridin-3-yl-thiazolidin-4-yl)-methanone]
16,1.1 nM,O=C(c1c[nH]c2c(OCc3ccccc3)cccc12)[C@@H]1CSC(c2cccnc2)N1 (stereo partly drawn) [(7-Benzyloxy-1H-indol-3-yl)-((R)-2-pyridin-3-yl-thiazolidin-4-yl)-methanone; TFA]
17,3.4 nM,O=C(c1cn(C(=O)c2ccc(Cl)cc2)c2ccccc12)[C@@H]1CSC(c2cccnc2)N1 (stereo partly drawn) [(4-Chloro-phenyl)-[3-((R)-2-pyridin-3-yl-thiazolidine-4-carbonyl)-indol-1-yl]-methanone]

# Source: BindingDB's records for doi:10.1021/jm00039a015 (Abbott Laboratories, 1994)
